In patent EP1038880B1, “Androstanes and pregnanes for allosteric modulation of GABA receptor” (priority 1994, dated 1995):

How the values were obtained:
[1] = tested on: Sprague-Dawley rats; experiment: Geller-Seifter conflict test; assay type: in vivo; settings: subcutaneous administration (Figure 10)
Description: This animal model of human anxiety utilizes a conditioned state of conflict in rats to ascertain the anxiolytic properties of drugs. […] The first includes bar pressing under a variable […] schedule without punishment. The second component is a fixed ratio schedule with each bar press resulting in a positive reinforcement and a punishment. The punished component produces a state of conflict within the animal. […] An anxiolytic response would increase the punished responding without affecting the unpunished responding.
Rats were housed individually under a 12-hour light-dark cycle with lights on from 0700-1900.
Rats were trained in test chambers (Coulbourn instruments) with a lever mounted in one wall, a small dipper that delivered the 0.1-mL milk reward (1 part Eagle condensed : milk 2 parts water), and a metal grid floor through which the foot-shock punishment was administered. A DEC PDP 11/73 minicomputer nmning SKED (State Systems) was used for programming and recording.
Rates initially learned to respond on a continuous reinforcement schedule and progressed rapidly to 30-sec, 1-min, and 2-min variable interval (VI) schedules. On the continuous reinforcement schedule, rats received milk reward following every lever press; on the VI schedules, milk rewards were available at infrequent and variable intervals, eventually at an average of once every 2 min. […] During conflict periods, which were signalled by the presentation of a light and a tone, the continuous reinforcement schedule was again in force and each lever press delivered both a milk reward and a brief ([…]) foot-shock Shock intensity was 0.2 mA initially, and.was increased daily in increments of 0.02 mA in order to gradually suppress lever pressing to 5 responses or less per conflict period. […] Drug-induced increases in the rate of punished responses were taken as an index of antianxiety activity, while decreases in the rate of unpunished responses were taken as an index of response depression or sedation.

[2] = Rotorod test (general CNS depression potential); settings: mouse, in vivo, ip
Method: The anticonvulsant tests are similar to that described above. […] The number of animals with tonic and/or clonic convulsions was recorded. In the maximal electroshock test, 50 mA of current at 60 Hz was delivered through corneal electrodes for 200 msec to induce tonic seizure. The ability of compounds to abolish the tonic component was defined as the endpoint. General CNS depression potential was determined by a rotorod test 10 minutes after the injection of compounds where the number of mice staying on a rotating (6 rpm) rod for 1 minute in one of the three trials was determined. […] Table 7. Anticonvulsant Activity of Exemplified Neuroactive Steroids and those of Selected Clinically Useful Anticonvulsants in Mice

Structure (SMILES) | dose of peak effect on rate of punished responses [1] [mg/kg] | ED50 at 10 min [2] [mg/kg]
CC(=O)[C@H]1CC[C@H]2[C@@H]3CC[C@H]4C[C@H](O)CC[C@]4(C)[C@H]3CC[C@]12C [3α-Hydroxy-5α-pregnan-20-one, 3α-hydroxy-5α-pregnan-20-one] | 4.4 | –
C[C@]12CC[C@@H](O)C[C@@H]1CC[C@@H]1[C@@H]2CC[C@]2(C)[C@@H](C(=O)CO)CC[C@@H]12 [3α,21-dihydroxy-5α-pregnan-20-one] | – | 22.9
